According to patent US9938270B2, “Mono-phosphate salt of 6-fluoro-2-[4-(pyridin-2-yl)but-3-yn-1-yl]imidazo[1,2A]pyridine (dipraglurant) and polymorphs thereof as negative allosteric modulator of MGLU5 receptor” (Addex Pharma S.A., priority 2013, dated 2018):
Converted amounts (≈) assume the structure as drawn.

Experiment: aqueous solubility
Type: physicochemical
Conditions: aqueous medium, aqueous buffer; at all relevant physiological pH

Row | Structure (SMILES) | solubility [mg/mL]
1 | Fc1ccc2nc(CCC#Cc3ccccn3)cn2c1 [free base, 6-Fluoro-2-[4-(pyridin-2-yl)but-3-yn-1-yl]imidazo[1,2-a]pyridine] | 0.5 (≈ 1880 µM)
2 | Fc1ccc2nc(CCC#Cc3ccccn3)cn2c1.O=P(O)(O)O [mono-phosphate salt, 6-fluoro-2-[4-(pyridin-2-yl)but-3-yn-1-yl]imidazo[1,2-a]pyridine mono-phosphate salt] | 21 to 32.5
